Test [1] deals with T1, Aurora kinase A (Homo sapiens, UniProt O14965).
T1 sequence (O14965 whole entry): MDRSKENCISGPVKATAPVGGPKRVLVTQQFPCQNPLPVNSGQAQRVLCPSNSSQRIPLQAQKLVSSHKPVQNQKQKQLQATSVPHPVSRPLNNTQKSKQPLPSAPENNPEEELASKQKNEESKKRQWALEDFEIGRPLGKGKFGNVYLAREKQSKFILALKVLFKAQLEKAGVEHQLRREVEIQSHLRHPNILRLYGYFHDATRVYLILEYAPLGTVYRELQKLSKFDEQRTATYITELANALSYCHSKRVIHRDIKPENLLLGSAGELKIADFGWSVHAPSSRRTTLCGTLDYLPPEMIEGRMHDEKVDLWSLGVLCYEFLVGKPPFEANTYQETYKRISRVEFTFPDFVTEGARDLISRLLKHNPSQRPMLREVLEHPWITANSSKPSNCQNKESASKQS
In words: Inhibition of human Aurora A.

For test [2], the system named is A549. Briefly: Antiproliferative activity against human A549 cells after 6 to 7 days by celltiter-glo luminescence assay in absence of 70% human serum albumin. The test is classed as functional, cell-based. Background: ATP-based viability assays read luminescence as a measure of living cells.
Test [3] has as its system A549. Briefly: Selectivity ratio of EC50 for human A549 cells in presence of 70% human serum albumin to EC50 for human A549 cells in absence of 70% human serum albumin. The test is classed as functional.
For test [4], the target named is Aurora kinase B (Homo sapiens, UniProt Q96GD4). In words: Inhibition of human Aurora B by in vitro inhibition assay.
The species entered for test [5] is Homo sapiens. In words: Selectivity ratio of IC50 for human Aurora A to IC50 for human Aurora B.

Sequence of Aurora kinase B (Q96GD4 whole entry): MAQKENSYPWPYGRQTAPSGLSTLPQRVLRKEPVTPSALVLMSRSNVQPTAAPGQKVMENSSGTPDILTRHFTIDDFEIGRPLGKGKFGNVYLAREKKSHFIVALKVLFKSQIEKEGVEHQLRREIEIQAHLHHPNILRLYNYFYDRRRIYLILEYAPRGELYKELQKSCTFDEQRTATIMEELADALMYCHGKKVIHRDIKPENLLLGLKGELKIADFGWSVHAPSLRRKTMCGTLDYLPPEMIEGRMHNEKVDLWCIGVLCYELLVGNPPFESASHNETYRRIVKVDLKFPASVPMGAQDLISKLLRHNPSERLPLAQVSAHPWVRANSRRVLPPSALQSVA

By IC50 is commonly meant the concentration at which inhibition is half-maximal. A low value points to greater potency. The EC50 is the concentration that produces a half-maximal response. Higher therefore signals weaker potency. Turning to `CCn1cc(-c2ccnc3[nH]c(CNCCN4CCOCC4)cc23)c(-c2ccc(NC(=O)Nc3ccccc3)cc2)n1`, the results for the IC50 in test [1] and in test [4] were 2.44 µM and 0.022 µM, respectively. In test [2], this molecule came in with a concentration giving a half-maximal response (EC50) of 2.86 µM. In test [3], the “Ratio EC50” value was determined as 10.
Take `CCNC(=O)Nc1ccc(-c2nn(CC)cc2-c2ccnc3[nH]c(-c4ccc(CN5CCCC5)cc4)cc23)cc1`: the IC50 is 0.042 µM in test [1] and 0.0015 µM in test [4]. Also, the EC50 in test [2] was found to be 0.008 µM.
Regarding `CCn1cc(-c2ccnc3[nH]c(CNCCN(C)C)cc23)c(-c2ccc(NC(=O)Nc3ccccc3)cc2)n1`, the values for the IC50 in test [1] and in test [4] were 5.48 µM and 0.276 µM, respectively. Also, in test [3], the “Ratio EC50” value was 10.
As to `CCn1cc(-c2ccnc3[nH]c(-c4ccc(CN(C)C)cc4)cc23)c(-c2ccc(NC(=O)N(C)C)cc2)n1`, the results for the 50% inhibitory concentration (IC50) in test [1] and in test [4] were 0.514 µM and 0.0036 µM, respectively. In addition, the Ratio IC50 in test [5] turned out to be 156. Besides, a half-maximal effect in test [2] (EC50) was put at 0.006 µM.
Consider `O=C(Nc1ccccc1)Nc1ccc(-c2n[nH]cc2-c2ccnc3[nH]ccc23)cc1`, for which the results for the IC50 in test [1] and in test [4] were 3.85 µM and 0.032 µM, respectively. In addition, a half-maximal response in test [2] (EC50) required 12.8 µM.
As for `CCn1cc(-c2ccnc3[nH]c(CNCCS(C)(=O)=O)cc23)c(-c2ccc(NC(=O)Nc3ccccc3)cc2)n1`, the figures for the IC50 in test [1] and in test [4] were 0.579 µM and 0.024 µM, respectively. In test [2], the concentration for a half-maximal effect (EC50) was 11.5 µM. Further, the “Ratio EC50” value in test [3] was 10.
Consider `O=C(Nc1ccccc1)Nc1ccc(-c2nn(CC3CCCO3)cc2-c2ccnc3[nH]ccc23)cc1` (centres undefined), for which the IC50 in test [1] came to 6.19 µM; in test [4], 0.097 µM.
Take `CC(C)(C)n1cc(-c2ccnc3[nH]ccc23)c(-c2ccc(NC(=O)Nc3ccccc3)cc2)n1`: the IC50 in test [1] came to 8.16 µM; in test [4], 0.05 µM. For the same molecule, in test [2], the EC50 was found to be 0.476 µM.
For `CCn1cc(-c2ccnc3[nH]c(-c4cccc(CN5CCCC5)c4)cc23)c(-c2ccc(NC(=O)N(C)C)cc2)n1`, in that order: 0.366 µM, 0.0021 µM and 0.007 µM.
In the case of `CCn1cc(-c2ccnc3[nH]c(-c4ccc(CN(C)C)cc4C)cc23)c(-c2ccc(NC(=O)Nc3ccccc3)cc2)n1`, the values for the IC50 in test [1] and in test [4] were 0.042 µM and 0.026 µM, respectively. The molecule further yielded an EC50 in test [2] of 0.016 µM. The “Ratio EC50” value in test [3] was 10.
The matching figures for `CCn1cc(-c2ccnc3[nH]c(-c4cccc(CN5CCOCC5)c4)cc23)c(-c2ccc(NC(=O)Nc3ccccc3)cc2)n1`: 0.094 µM, 0.057 µM, 0.03 µM and 10.
On to `O=C(Nc1ccccc1)Nc1ccc(-c2nn(CC(O)CO)cc2-c2ccnc3[nH]ccc23)cc1` (centres undefined), for which the IC50 amounted to 0.377 µM in test [1] and 0.001 µM in test [4]. Besides, in test [2], the midpoint of the response, the EC50, lay at 9.61 µM.
For `CCn1cc(-c2ccnc3[nH]c(-c4ccc(CN5CCCC5)cc4)cc23)c(-c2ccc(NC(=O)N(C)C)cc2)n1`, in that order: 0.414 µM, 0.0045 µM and 0.006 µM.
For the molecule `CCn1cc(-c2ccnc3[nH]c(C(=O)NCCN4CCN(C)CC4)cc23)c(-c2ccc(NC(=O)Nc3ccccc3)cc2)n1`, the 50% inhibitory concentration (IC50) in test [1] is 0.203 µM; in test [4], 0.005 µM. In test [2], this molecule registered an EC50 of 0.417 µM. Further, the “Ratio EC50” value in test [3] amounted to 10.
The matching figures for `CCn1cc(-c2ccnc3[nH]c(-c4ccc(NC(C)=O)cc4)cc23)c(-c2ccc(NC(=O)Nc3ccccc3)cc2)n1`: 0.062 µM, 0.044 µM, 0.11 µM and 10.
For `CCn1cc(-c2ccnc3[nH]c(CN(C)C)cc23)c(-c2ccc(NC(=O)Nc3ccccc3)cc2)n1`, in that order: 1.7 µM, 0.058 µM, 4.39 µM and 10.
Turning to `O=C(Nc1ccccc1)Nc1ccc(-c2nn(CC(=O)N3CCOCC3)cc2-c2ccnc3[nH]ccc23)cc1`, the IC50 in test [1] stood at 6.81 µM; in test [4] it was 0.085 µM. In test [2], this molecule had an EC50 above 20 µM.
For `CCn1cc(-c2ccnc3[nH]c(-c4cccc(CN5CCCC5)c4)cc23)c(-c2ccc(NC(=O)Nc3ccccc3)cc2)n1`, the IC50 came out at 0.022 µM in test [1] and 0.011 µM in test [4]. The molecule further came in with a 50% effective concentration (EC50) in test [2] of 0.012 µM. Further, the “Ratio EC50” value in test [3] stood at 10.
The matching figures for `CCn1cc(-c2ccnc3[nH]c(CNCCO)cc23)c(-c2ccc(NC(=O)Nc3ccccc3)cc2)n1`: 2.82 µM, 0.046 µM, 18.6 µM and 10.
With `CCNC(=O)Cn1cc(-c2ccnc3[nH]ccc23)c(-c2ccc(NC(=O)Nc3ccccc3)cc2)n1`, the IC50 came to 3.39 µM in test [1] and 0.064 µM in test [4]. Besides, in test [2], the EC50 was above 20 µM.
As for `CCn1cc(-c2ccnc3[nH]c(-c4cccc(NC(C)=O)c4)cc23)c(-c2ccc(NC(=O)Nc3ccccc3)cc2)n1`, the 50% inhibitory concentration (IC50) was found to be 0.126 µM in test [1] and 0.044 µM in test [4]. This molecule also came in with an EC50 in test [2] of 0.156 µM. In test [3], the “Ratio EC50” value was 10.
In the case of `CCn1cc(-c2ccnc3[nH]c(CNCCCN4CCN(C)CC4)cc23)c(-c2ccc(NC(=O)Nc3ccccc3)cc2)n1`, the figures for the IC50 in test [1] and in test [4] were 5.11 µM and 0.083 µM, respectively. The concentration for a half-maximal effect (EC50) in test [2] is above 20 µM. In addition, the “Ratio EC50” value in test [3] is recorded as 10.
Turning to `O=C(Nc1ccccc1)Nc1ccc(-c2nn(CC(F)(F)F)cc2-c2ccnc3[nH]ccc23)cc1`, the IC50 in test [1] was 2.15 µM; in test [4], 0.016 µM. This molecule also returned a concentration for a half-maximal effect (EC50) in test [2] of 0.326 µM.
Regarding `CCn1cc(-c2ccnc3[nH]c(C(=O)NCCCN4CCN(C)CC4)cc23)c(-c2ccc(NC(=O)Nc3ccccc3)cc2)n1`, the IC50 in test [1] worked out at 0.228 µM; in test [4], 0.008 µM. Further, a half-maximal response in test [2] (EC50) required 0.638 µM. In test [3], the “Ratio EC50” value was found to be 10.
`CCn1ncc(-c2ccnc3[nH]ccc23)c1-c1ccc(NC(=O)Nc2ccccc2)cc1`: the IC50 in test [1] came to 5.6 µM; in test [4], 0.025 µM. In test [2], the half-maximal effective concentration (EC50) stood at 1.59 µM.
As for `CCNC(=O)Nc1ccc(-c2nn(CC)cc2-c2ccnc3[nH]c(-c4cccc(CN5CCCC5)c4)cc23)cc1`, the results for the IC50 in test [1] and in test [4] were 0.058 µM and 0.0014 µM, respectively. Further, the half-maximal effective concentration (EC50) in test [2] stood at 0.009 µM.
`O=C(Nc1ccccc1)Nc1ccc(-c2nn(CCO)cc2-c2ccnc3[nH]ccc23)cc1`: the values for the IC50 in test [1] and in test [4] were 0.792 µM and 0.003 µM, respectively. The same molecule registered an EC50 in test [2] of 2.63 µM.
The matching figures for `CCNC(=O)Nc1ccc(-c2nn(CC)cc2-c2ccnc3[nH]c(-c4cccc(CN5CCOCC5)c4)cc23)cc1`: 0.07 µM, 0.005 µM and 0.026 µM.
Take `CCn1cc(-c2ccnc3[nH]c(C(=O)NCCN4CCOCC4)cc23)c(-c2ccc(NC(=O)Nc3ccccc3)cc2)n1`: the results for the IC50 in test [1] and in test [4] were 0.197 µM and 0.005 µM, respectively. This molecule yielded a concentration giving a half-maximal response (EC50) in test [2] of 0.2 µM. Further, the “Ratio EC50” value in test [3] was 10.
Turning to `CCNC(=O)Nc1ccc(-c2nn(CC)cc2-c2ccnc3[nH]c(-c4ccc(CN(C)C)cc4)cc23)cc1`, the IC50 turned out to be 0.039 µM in test [1] and 0.0017 µM in test [4]. Also, it took 0.006 µM to reach a half-maximal effect in test [2] (EC50).
The matching figures for `CCn1cc(-c2ccnc3[nH]c(-c4cccc(CN5CCOCC5)c4)cc23)c(-c2ccc(NC(=O)N(C)C)cc2)n1`: 0.495 µM, 0.0047 µM and 0.018 µM.
`CCn1cc(-c2ccnc3[nH]c(-c4ccc(CN(C)C)cc4)cc23)c(-c2ccc(NC(=O)Nc3ccccc3)cc2)n1`: the IC50 in test [1] came out at 0.045 µM; in test [4], 0.023 µM. The molecule further showed an EC50 in test [2] of 0.008 µM. Moreover, in test [3], the “Ratio EC50” value amounted to 10.
`CC(C)(C)n1ncc(-c2ccnc3[nH]ccc23)c1-c1ccc(NC(=O)Nc2ccccc2)cc1`: the IC50 in test [1] amounted to 5.77 µM; in test [4] it was 0.04 µM. The same molecule registered an EC50 in test [2] of 0.89 µM.
For `CCNC(=O)Nc1ccc(-c2nn(CC)cc2-c2ccnc3[nH]c(-c4ccc(CN5CCOCC5)cc4)cc23)cc1`, the IC50 was 0.023 µM in test [1] and 0.0047 µM in test [4]. In addition, the concentration for a half-maximal effect (EC50) in test [2] stood at 0.012 µM.
For `O=C(Nc1ccccc1)Nc1ccc(-c2nn(CCCO)cc2-c2ccnc3[nH]ccc23)cc1`, in that order: 0.969 µM, 0.002 µM and 0.779 µM.
Take `CCn1cc(-c2ccnc3[nH]c(-c4ccc(CN5CCOCC5)cc4)cc23)c(-c2ccc(NC(=O)Nc3ccccc3)cc2)n1`: the IC50 in test [1] is 0.059 µM; in test [4], 0.066 µM. The same molecule registered an EC50 in test [2] of 0.017 µM. Besides, the “Ratio EC50” value in test [3] is recorded as 10.
As for `CCn1cc(-c2ccnc3[nH]c(-c4ccc(CN5CCOCC5)cc4)cc23)c(-c2ccc(NC(=O)N(C)C)cc2)n1`, the results for the IC50 in test [1] and in test [4] were 0.25 µM and 0.0081 µM, respectively. Moreover, in test [2], a half-maximal effect (EC50) was put at 0.009 µM.
The matching figures for `NC(=O)Cn1cc(-c2ccnc3[nH]ccc23)c(-c2ccc(NC(=O)Nc3ccccc3)cc2)n1`: 5.68 µM, 0.064 µM and above 20 µM.
In the case of `CCn1cc(-c2ccnc3[nH]c(-c4cc(CN(C)C)ccc4C)cc23)c(-c2ccc(NC(=O)Nc3ccccc3)cc2)n1`, the IC50 in test [1] is 0.113 µM; in test [4], 0.06 µM. This molecule had an EC50 in test [2] of 0.174 µM. Further, the “Ratio EC50” value in test [3] came to 10.
In turn, `CCn1cc(-c2ccnc3[nH]ccc23)c(-c2ccc(NC(=O)N(C)C)cc2)n1` returned an IC50 in test [1] above 10 µM.

(Values after ChEMBL document CHEMBL1157791, “Discovery of GSK1070916, a potent and selective inhibitor of Aurora B/C kinase” (J Med Chem, 2010).)
